Reference: patent publication US7135475B2, “Amide substituted xanthine derivatives” (Hoffmann-La Roche Inc., priority 2002, dated 2006)

Target: T1, recombinant human cytosolic PEPCK (Homo sapiens, UniProt P35558)
T1 sequence (P35558 1-622): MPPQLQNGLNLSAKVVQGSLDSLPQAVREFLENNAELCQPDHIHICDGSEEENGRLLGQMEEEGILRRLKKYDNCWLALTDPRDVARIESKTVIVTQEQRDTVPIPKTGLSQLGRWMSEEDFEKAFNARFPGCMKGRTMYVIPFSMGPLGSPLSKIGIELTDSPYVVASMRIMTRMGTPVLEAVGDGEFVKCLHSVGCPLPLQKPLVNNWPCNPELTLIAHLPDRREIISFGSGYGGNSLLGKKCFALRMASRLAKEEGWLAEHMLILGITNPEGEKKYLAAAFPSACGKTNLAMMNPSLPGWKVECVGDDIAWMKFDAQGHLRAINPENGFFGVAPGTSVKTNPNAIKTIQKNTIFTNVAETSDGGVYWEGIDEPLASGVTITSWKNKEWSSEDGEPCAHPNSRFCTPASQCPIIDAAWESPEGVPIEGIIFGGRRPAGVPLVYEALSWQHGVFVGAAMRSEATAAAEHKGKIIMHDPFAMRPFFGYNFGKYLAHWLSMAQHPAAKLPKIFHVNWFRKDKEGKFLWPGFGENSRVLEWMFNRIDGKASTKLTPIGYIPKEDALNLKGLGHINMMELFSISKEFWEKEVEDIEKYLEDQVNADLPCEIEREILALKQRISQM
Assay: PEPCK enzyme assay (coupled pyruvate kinase/lactate dehydrogenase, absorbance at 340)
Assay type: biochemical
Settings: recombinant human cytosolic GST-PEPCK; GTP and OAA at 3 fold and 10 fold Km; final DMSO 10%; room temperature, twenty minutes; read-out: In vitro IC50
Description: E. coli cells expressing GST-PEPCK were suspended in 5 volumes of lysis buffer (50 mM Tris-hydroxymethyl aminomethyl (TRIS), 150 mM sodium chloride (NaCl), 10 mM ethylene-diametetraacetic acid (EDTA), 5 mM dithiothreitol(DTT), 1% Nonidet P-40, pH 7.4) in the presence of protease inhibitors, incubated with lysozyme at 200 micrograms/ml for 30 min. at room temperature, and sonicated 4×30 seconds at 4 degrees C. After centrifugation at 12,000×g for 20 min. to remove insoluble material, the supernatant was loaded onto glutathione Sepharose (Pharmacia), washed with lysis buffer followed by washing with lysis buffer in the absence of NP-40. GST-PEPCK was eluted with the same buffer containing 20 mM glutathione. The eluted protein was concentrated and dialyzed against 25 mM Hepes(N-[2-hydroxyethyl]piperazine-N′[2-ethanesulfonic acid), 150 mM NaCl, 2.5 mM EDTA, 5 mM DTT, 30% glycerol, pH 7.4, and stored at −20 ° C.
The inhibitory effect of the compounds of the present invention on PEPCK enzymatic activity was determined using recombinant human cytosolic PEPCK, expressed and purified from E.coli as a GST-fusion. Guanosine triphosphate (GTP) and manganese dependent PEPCK enzyme activity catalyzed the decarboxylation of oxalacetate leading to the formation of guanosine diphosphate (GDP) and phosphoenol pyruvate (PEP). This reaction is coupled to pyruvate kinase and lactate dehydrogenase catalyzed reactions and the overall reaction rate determined by measuring the change in absorbance at 340 nm (Chang, H. C. and Lane M. D., J. Biol.Chem. 241:2413–2420, 1966). The following modifications were made to the protocol: 2.5 μg of recombinant, human cytosolic glutathione-S-transferase (GST)-PEPCK was added to a reaction mixture at room temperature which contained 0.3 mM GTP, 0.3 mM oxaloacetate (OAA), 3 mM magnesium chloride (MgCl2), 0.075 mM manganese chloride (MnCl2), 30 mM potassium phosphates (KPO4), pH 7.6, 1 mM dithiothreitol (DTT), 0.2 mM adenosine diphosphate (ADP), 1 mM nicotinamide adenine dinucleotide, reduced form (NADH), 0.9 Units/ml each of pyruvate kinase and lactate dehydrogenase and 1 mg/ml bovine serum albumin (BSA). Test compounds were added such that final concentration of DMSO was 10%. Reactions were run for twenty minutes.
Km values for GTP and OAA were determined according to Michelis-Menton conditions as described in Cornish-Bowden (Fundamentals of Enzyme Kinetics, 1995) in essentially the coupled assay conditions described above. […] Test compounds were added to reactions over a range of concentrations and IC50's were calculated from plots of inhibitor concentration versus enzyme rate. This method of determination of IC50 values is equally applicable to calculations based on PEPCK cellular assay.
The in vitro biological activity of several representative preferred compounds of the present invention in the foregoing PEPCK enzymatic assay is presented in Table 1.

`Cc1oncc1C(=O)N(C)c1ccc(Cc2nc3c([nH]2)c(=O)n(Cc2ccccc2F)c(=O)n3CC2CC2)cc1` [Example 114, 5-Methyl-isoxazole-4-carboxylic acid {4-[3-cyclopropylmethyl-1-(2-fluorobenzyl)-2,6-dioxo-2,3,6,7-tetrahydro-1H-purin-8-ylmethyl]-phenyl}-methyl-amide] and `CN(C(=O)c1sccc1C(N)=O)c1ccc(Cc2nc3c([nH]2)c(=O)n(Cc2ccccc2F)c(=O)n3CC2CC2)cc1` [Example 115, Thiophene-2,3-dicarboxylic acid 3-amide 2-({4-[3-cyclopropylmethyl-1-(2-fluorobenzyl)-2,6-dioxo-2,3,6,7-tetrahydro-1H-purin-8-ylmethyl]-phenyl}-methyl-amide)] are within 1.5-fold of each other in IC50: 740 nM for the first, 930 nM for the second.

Going from `CCN(C(=O)c1c(C)nn(C)c1C)c1ccc(Cc2nc3c([nH]2)c(=O)n(Cc2ccccc2F)c(=O)n3CC2CC2)cc1` [Example 117, 1,3,5-Trimethyl-1H-pyrazole-4-carboxylic acid {4-[3-cyclopropylmethyl-1-(2-fluorobenzyl)-2,6-dioxo-2,3,6,7-tetrahydro-1H-purin-8-ylmethyl]-phenyl}-ethyl-amide] to `Cc1ccc(C(=O)N(c2ccc(Cc3nc4c([nH]3)c(=O)n(Cc3ccccc3F)c(=O)n4CC3CC3)cc2)C(C)C)cn1` [Example 119, N-{4-[3-Cyclopropylmethyl-1-(2-fluorobenzyl)-2,6-dioxo-2,3,6,7-tetrahydro-1H-purin-8-ylmethyl]-phenyl}-N-isopropyl-6-methyl-nicotinamide], the IC50 rises from 190 nM to 310 nM (1.6-fold).

`CCCCN(C(=O)c1ccc(C)nc1)c1ccc(Cc2nc3c([nH]2)c(=O)n(Cc2ccccc2F)c(=O)n3CCCC)cc1` [Example 118, N-Butyl-N-{4-[3-butyl-1-(2-fluorobenzyl)-2,6-dioxo-2,3,6,7-tetrahydro-1H-purin-8-ylmethyl]-phenyl}-6-methyl-nicotinamide] and `Cc1ccc(C(=O)N(CC2CCC2)c2ccc(Cc3nc4c([nH]3)c(=O)n(Cc3ccccc3F)c(=O)n4CC3CCC3)cc2)cn1` [Example 121, N-Cyclobutylmethyl-N-{4-[3-cyclobutylmethyl-1-(2-fluorobenzyl)-2,6-dioxo-2,3,6,7-tetrahydro-1H-purin-8-ylmethyl]-phenyl}-6-methyl-nicotinamide] are within 1.5-fold of each other in IC50: 560 nM for the first, 390 nM for the second.

With `CC(C)N(C(=O)Cc1cccnc1)c1ccc(Cc2nc3c([nH]2)c(=O)n(Cc2ccccc2F)c(=O)n3CC2CC2)cc1` [Example 120, N-{4-[3-Cyclopropylmethyl-1-(2-fluorobenzyl)-2,6-dioxo-2,3,6,7-tetrahydro-1H-purin-8-ylmethyl]-phenyl}-N-isopropyl-2-pyridin-3-yl-acetamide] the IC50 was 400 nM.

Tested on: not given
Assay: not given
Settings: not given

Work on `CCCCn1c(=O)n(Cc2ccccc2)c(=O)c2[nH]c(Cc3ccc(N4C(=O)CCC4=O)cc3)nc21` [Example 65, 1-Benzyl-3-butyl-8-[4-(2,5-dioxo-pyrrolidin-1-yl)-benzyl]-3,7-dihydro-purine-2,6-dione] yielded a melting point of 208 to 212 °C.
